From patent EP0352863A2, “1,4-Dihydropyridine dicarboxylic acid derivatives” (ZAMBON GROUP S.p.A., priority 1988, dated 1990) come the findings set out here.

One experiment addresses T1, beta₂ lung receptor (Mus musculus, UniProt P18762).
T1 construct: Ki (nM) mouse lung beta₂ receptors; from tissue; host or cells: mouse lung
Put plainly: binding test, beta2 lung receptors. The text has this:
(§1) Moreover, the beta-blocking activity has been tested by means of the binding test both towards beta₁ heart receptors and towards beta₂ lung receptor in mouse according to the methods described in the J. Biol. Chem., 253, 5090, (1978) and in the Br. j. Pharmacol., 68, 57, (1980).

The target of the next experiment is T2, beta₁ heart receptors (Mus musculus, UniProt P34971).
T2 construct: from tissue; host or cells: mouse heart
Put plainly: binding test, beta1 heart receptors.
Source text: as §1

Another experiment has as its system rabbit mesenteric artery. Put plainly: calcium-antagonist activity, rabbit mesenteric artery test (antagonism of 3 mM Ca++ in Krebs depolarizer). Conditions: Ca++ submaximal concentration 3mM, read-out: IC₅₀. Here is the method:
Calcium-antagonist activity of the compounds of formula I has been tested as capability of antagonizing the effect of Ca⁺⁺ submaximal concentrations (3mM) on preparations of rabbit mesenteric artery in Krebs depolarizer, prepared according to Towart "J. Cardiovasc. Pharmacol. 4, 895, (1982)".
The compounds of this invention, tested as calcium antagonist agents on the rabbit mesnteric artery show an IC₅₀ of from 10 to 200 (nM); Ki affinity for beta₁ receptors is of from 30 to 2000 (nM) and for beta₂ receptors is of from 20 to 5000 (nM).

In the next experiment the test system is anesthetized dog. Briefly: heart rate and mean arterial pressure in the anesthetized dog. It is filed as in vivo. Conditions: doses of from 100 to 400 ug/kg. Here is the method: The compounds of formula I produce antihypertensive effects in mouse and dog with concomitant reduction of the heart rate.
For example, in the anesthetized dog, compound 1 caused a heart rate reduction of from 9 to 23% and a reduction of the mean arterial pressure of from 3 to 15% at doses of from 100 to 400 ug/kg; at the same doses diastereoisomer A caused a heart rate reduction of from 17 to 30% and a mean arterial pressure reduction of from 12 to 25%, respectively.

SMILES strings stand for the structures. Read-outs that look alike come from different tables or passages of the source.

T1 sequence (P18762 whole entry): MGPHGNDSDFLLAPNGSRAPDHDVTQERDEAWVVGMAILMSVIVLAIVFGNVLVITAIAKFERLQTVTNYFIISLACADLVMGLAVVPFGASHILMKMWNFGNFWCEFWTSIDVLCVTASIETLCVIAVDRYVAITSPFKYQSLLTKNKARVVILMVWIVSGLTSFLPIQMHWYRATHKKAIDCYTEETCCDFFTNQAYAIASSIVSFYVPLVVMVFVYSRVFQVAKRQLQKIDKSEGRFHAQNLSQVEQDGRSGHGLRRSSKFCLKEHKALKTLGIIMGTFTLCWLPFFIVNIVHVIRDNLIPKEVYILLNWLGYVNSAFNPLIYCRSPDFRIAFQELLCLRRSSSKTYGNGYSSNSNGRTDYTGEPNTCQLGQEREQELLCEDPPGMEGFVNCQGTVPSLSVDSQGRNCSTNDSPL
T2 sequence (P34971 whole entry): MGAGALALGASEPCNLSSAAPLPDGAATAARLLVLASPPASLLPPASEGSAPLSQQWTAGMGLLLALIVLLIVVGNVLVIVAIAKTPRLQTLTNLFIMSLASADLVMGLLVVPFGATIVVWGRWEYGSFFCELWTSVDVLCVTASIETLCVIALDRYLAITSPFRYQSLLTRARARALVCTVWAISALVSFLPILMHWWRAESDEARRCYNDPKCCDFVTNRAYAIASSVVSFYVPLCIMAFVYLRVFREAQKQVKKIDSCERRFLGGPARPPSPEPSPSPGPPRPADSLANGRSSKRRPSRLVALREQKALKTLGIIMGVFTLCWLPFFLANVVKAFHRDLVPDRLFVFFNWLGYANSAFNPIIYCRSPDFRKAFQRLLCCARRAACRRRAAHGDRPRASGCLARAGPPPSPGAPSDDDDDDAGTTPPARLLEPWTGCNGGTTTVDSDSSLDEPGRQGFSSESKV

For orientation: Ki means a dissociation constant, usually derived from enzyme kinetics or from competition with a known ligand. Consider `CC(C)NCC(O)COc1ccc(CC(N)=O)cc1` (stereo not shown) [atenolol, reference compound], for which the inhibitory constant (Ki) at beta₂ lung receptor was determined as 18000 nM; on beta₁ heart receptors, 840 nM.

Turning to `CCOC(=O)C1=C(C)NC(CN(C)CC(C)(C)NCC(O)COc2ccccc2OC)=C(C(=O)OCC)C1c1cccc([N+](=O)[O-])c1` (single isomer, unassigned) [diastereoisomer B], the IC50 in the experiment with rabbit mesenteric artery is 120 nM. Also, the Ki at beta₂ lung receptor is 560 nM; on beta₁ heart receptors, 165 nM.

With `CCOC(=O)C1=C(C)NC(CN(C)CC(C)(C)NCC(O)COc2ccccc2OC)=C(C(=O)OCC)C1c1cccc([N+](=O)[O-])c1` (stereo not shown) [Compound 1, ethyl 1,4-dihydro-6-methyl-2-(N-methyl-N-(2-(2-hydroxy-3-(2-methoxyphenoxy)-propylamino)-2-methylpropyl)aminomethyl)-4-(3-nitrophenyl)-3,5-pyridinedicarboxylate], the IC50 in the experiment with rabbit mesenteric artery (Oryctolagus cuniculus) worked out at 47 nM.

For `CCOC(=O)C1=C(C)NC(CN(C)CC(C)(C)NCC(O)COc2ccccc2OC)=C(C(=O)OCC)C1c1cccc([N+](=O)[O-])c1` (single isomer, unassigned) [diastereoisomer A], in the experiment on rabbit mesenteric artery, the IC50 amounted to 15 nM. In addition, in the experiment with anesthetized dog, the “duration of hypotensive effect and bradycardia” value was “lasting over five hours”. Also, the values for the inhibition constant Ki at beta₂ lung receptor and on beta₁ heart receptors were 2050 nM and 600 nM, respectively.
